Results reported in patent US10882871B2, “18/19F-labelled compounds which target the prostate specific membrane antigen” (BRITISH COLUMBIA CANCER AGENCY BRANCH, priority 2016, dated 2021).
Values joined by “and” are separate entries in the source; they are usually repeats but may differ in a detail not shown here. Equal entries are not always repeated.

Tested on: tumors derived from LNCaP cells
Experiment: PET/CT imaging and biodistribution of F-18 labeled HTK-01069 and HTK-01070 in tumor-bearing mice
Type: in vivo, mouse (NODSCID 1L2RγKO male mice)
Procedure: LNCap cell line used in the tumor model was obtained commercially from ATTC (LNCaP clone FGC, CRL-1740). It was established from a metastatic site of left supraclavicular lymph node of human prostatic adenocarcinoma. Cells were cultured in PRMI 1640 (StemCell Technologies, Vancouver, BC) supplemented by 10% FBS, 100 U/mL penicillin and 100 μg/mL streptomycin at 37° C. in a humidified incubator containing 5% CO2. Cells grown to 80-90% confluence were then washed with sterile phosphate-buffered saline (1×PBS pH 7.4) and trypsinization. The collected cells number was counted with Hemacytometer (Hausser Scientific).
Tumor implantation: Imaging and biodistribution experiments were performed using NODSCID 1L2RγKO male mice. Three or four mice in each cage equipped with enrichments. The mice were maintained and the experiments were conducted in according to the guidelines established by Canadian Council on Animal Care and approved by Animal Ethics Committee of the University of British Columbia. Mice were housed under pathogen-free conditions and kept on twelve hours light and twelve hours dark cycle in the Animal Research Centre, British Columbia Cancer Research Centre, Vancouver, Canada.
Mice were anesthetized by inhalation with 2.5% isoflurane in 2.0 L/min of oxygen during cells implantation. Mice were implanted subcutaneously with 1×10^7 LNCaP cells behind left shoulder. Mice were imaged or used in biodistribution studies when the tumor grew up to reach 5-8 mm in diameter during 5-6 weeks.
PET/CT Imaging: PET imaging experiments were conducted using Siemens inveon micro PET/CT scanner. Each tumor bearing mouse was injected ˜6.44 MBq of F-18 labeled HTK-01069 and ˜7.08 MBq of F-18 labeled HTK-01070 through the tail vein under anesthesia. After one hour, the mice were sedated again with 2% isoflurane inhalation and positioned in the scanner. Static PET imaging was performed to determined activity uptake of tumor and other organs. A CT scan was obtained for localization and attenuation correction after segmentation for reconstructing the PET images. The data was acquired by scanning the mice for 10 minutes each. The mice were kept warm by a heating pad during acquisition. The mice were euthanized after imaging and followed by biodistribution. Please see FIGS. 2 and 3 of this specification for reconstructed PET images for 1L2RγKO mice injected with HTK-01069 and HTK-01070 respectively.
Blood was withdrawn immediately, and the organs of interest were quickly removed. Each organ was weighed and the tissue radioactivity was measured with a Cobra II gamma counter (Packard), normalized to the injected dose using a standard curve and expressed as the percentage of the injected dose per gram of tissue (% ID/g). Biodistribution data are shown for HTK-01069 in Tables 5, 6 and 7 and HTK-01070 in Tables 8, 9, 10 of the specification respectively.

[1] = 1 h p.i. with co-injection of 0.5 mg DCFPyL, Avg
[2] = 1 h p.i. with co-injection of 0.5 mg DCFPyL, single mice

C[N+](C)(Cc1cn(Cc2ccc(C(=O)NCCCC[C@H](NC(=O)N[C@@H](CCC(=O)O)C(=O)O)C(=O)O)cc2)nn1)C[B-](F)(F)[18F] [F-18 HTK-01070]
Biodistribution Adrenals [1]: 0.20 % ID/g | Biodistribution Blood [1]: 0.46 % ID/g | Biodistribution Bone [1]: 0.12 % ID/g | Biodistribution Brain [1]: 0.02 % ID/g | Biodistribution Fat [1]: 0.04 % ID/g | Biodistribution Heart [1]: 0.22 % ID/g | Biodistribution Intestine [1]: 0.31 % ID/g | Biodistribution Kidney [1]: 2.11 % ID/g | Biodistribution Liver [1]: 0.06 % ID/g | Biodistribution Lung [1]: 0.09 % ID/g | Biodistribution Muscle [1]: 0.30 % ID/g | Biodistribution Pancreas [1]: 1.76 % ID/g | Biodistribution Seminal [1]: 1.87 % ID/g | Biodistribution Spleen [1]: 0.06 % ID/g | Biodistribution Stomach [1]: 0.09 % ID/g | Biodistribution Tail [1]: 0.38 % ID/g | Biodistribution Testes [1]: 0.08 % ID/g | Biodistribution Tumour [1]: 0.27 % ID/g | Biodistribution Adrenals [2]: 0.23 % ID/g and 0.26 % ID/g and 0.17 % ID/g and 0.16 % ID/g | Biodistribution Brain [2]: 0.02 % ID/g | Biodistribution Heart [2]: 0.21 % ID/g and 0.27 % ID/g and 0.20 % ID/g and 0.19 % ID/g | Biodistribution Intestine [2]: 0.31 % ID/g and 0.30 % ID/g and 0.28 % ID/g and 0.32 % ID/g | Biodistribution Kidney [2]: 2.40 % ID/g and 2.05 % ID/g and 1.96 % ID/g | Biodistribution Liver [2]: 0.06 % ID/g and 0.08 % ID/g and 0.07 % ID/g and 0.05 % ID/g | Biodistribution Lung [2]: 0.11 % ID/g and 0.10 % ID/g and 0.07 % ID/g and 0.08 % ID/g | Biodistribution Muscle [2]: 0.31 % ID/g and 0.38 % ID/g and 0.23 % ID/g and 0.29 % ID/g | Biodistribution Pancreas [2]: 1.92 % ID/g and 1.65 % ID/g and 1.88 % ID/g and 1.57 % ID/g | Biodistribution Spleen [2]: 0.06 % ID/g and 0.05 % ID/g | Biodistribution Stomach [2]: 0.09 % ID/g and 0.14 % ID/g and 0.07 % ID/g | Biodistribution Tail [2]: 0.45 % ID/g and 0.35 % ID/g and 0.36 % ID/g | Biodistribution Testes [2]: 0.09 % ID/g and 0.10 % ID/g and 0.06 % ID/g | Biodistribution Tumour [2]: 0.35 % ID/g and 0.26 % ID/g and 0.21 % ID/g | Biodistribution Adrenals (1 h p.i., Avg): 4.65 % ID/g | Biodistribution Blood (1 h p.i., Avg): 0.52 % ID/g | Biodistribution Bone (1 h p.i., Avg): 0.44 % ID/g | Biodistribution Brain (1 h p.i., Avg): 0.04 % ID/g | Biodistribution Fat (1 h p.i., Avg): 0.73 % ID/g | Biodistribution Heart (1 h p.i., Avg): 0.33 % ID/g | Biodistribution Intestine (1 h p.i., Avg): 0.33 % ID/g | Biodistribution Kidney (1 h p.i., Avg): 71.70 % ID/g | Biodistribution Liver (1 h p.i., Avg): 1.69 % ID/g | Biodistribution Lung (1 h p.i., Avg): 1.39 % ID/g | Biodistribution Muscle (1 h p.i., Avg): 0.23 % ID/g | Biodistribution Pancreas (1 h p.i., Avg): 0.33 % ID/g | Biodistribution Seminal (1 h p.i., Avg): 3.13 % ID/g | Biodistribution Spleen (1 h p.i., Avg): 5.01 % ID/g | Biodistribution Stomach (1 h p.i., Avg): 0.10 % ID/g | Biodistribution Tail (1 h p.i., Avg): 0.76 % ID/g | Biodistribution Testes (1 h p.i., Avg): 0.67 % ID/g | Biodistribution Tumour (1 h p.i., Avg): 8.28 % ID/g | Biodistribution Blood (1 h p.i., single mice): 0.46 % ID/g and 0.63 % ID/g and 0.50 % ID/g and 0.51 % ID/g | Biodistribution Bone (1 h p.i., single mice): 0.37 % ID/g and 0.33 % ID/g and 0.58 % ID/g and 0.52 % ID/g and 0.38 % ID/g and 0.45 % ID/g | Biodistribution Brain (1 h p.i., single mice): 0.03 % ID/g and 0.04 % ID/g and 0.05 % ID/g | Biodistribution Heart (1 h p.i., single mice): 0.36 % ID/g and 0.47 % ID/g and 0.37 % ID/g and 0.27 % ID/g and 0.24 % ID/g and 0.28 % ID/g | Biodistribution Intestine (1 h p.i., single mice): 0.26 % ID/g and 0.32 % ID/g and 0.42 % ID/g and 0.37 % ID/g and 0.31 % ID/g | Biodistribution Kidney (1 h p.i., single mice): 62.45 % ID/g and 54.11 % ID/g and 52.66 % ID/g and 91.10 % ID/g and 76.59 % ID/g and 93.32 % ID/g | Biodistribution Liver (1 h p.i., single mice): 1.51 % ID/g and 1.53 % ID/g and 1.65 % ID/g and 1.90 % ID/g and 1.60 % ID/g and 1.94 % ID/g | Biodistribution Lung (1 h p.i., single mice): 1.32 % ID/g and 1.35 % ID/g and 1.24 % ID/g and 1.21 % ID/g and 1.59 % ID/g and 1.61 % ID/g | Biodistribution Muscle (1 h p.i., single mice): 0.28 % ID/g and 0.21 % ID/g and 0.24 % ID/g and 0.17 % ID/g and 0.25 % ID/g and 0.22 % ID/g | Biodistribution Pancreas (1 h p.i., single mice): 0.30 % ID/g and 0.33 % ID/g and 0.35 % ID/g and 0.28 % ID/g and 0.32 % ID/g and 0.41 % ID/g | Biodistribution Spleen (1 h p.i., single mice): 5.58 % ID/g and 4.75 % ID/g and 5.97 % ID/g and 4.51 % ID/g and 4.95 % ID/g and 4.31 % ID/g | Biodistribution Stomach (1 h p.i., single mice): 0.08 % ID/g and 0.09 % ID/g and 0.10 % ID/g and 0.16 % ID/g and 0.12 % ID/g | Biodistribution Testes (1 h p.i., single mice): 0.94 % ID/g and 0.79 % ID/g and 0.49 % ID/g and 0.57 % ID/g and 0.58 % ID/g and 0.64 % ID/g | Biodistribution Tumour (1 h p.i., single mice): 7.56 % ID/g and 10.45 % ID/g and 8.06 % ID/g and 8.60 % ID/g and 8.31 % ID/g and 6.70 % ID/g | Biodistribution Adrenals (2 h p.i., Avg): 1.79 % ID/g | Biodistribution Blood (2 h p.i., Avg): 0.16 % ID/g | Biodistribution Bone (2 h p.i., Avg): 0.10 % ID/g | Biodistribution Brain (2 h p.i., Avg): 0.02 % ID/g | Biodistribution Fat (2 h p.i., Avg): 0.38 % ID/g | Biodistribution Heart (2 h p.i., Avg): 0.47 % ID/g | Biodistribution Intestine (2 h p.i., Avg): 0.25 % ID/g | Biodistribution Kidney (2 h p.i., Avg): 42.78 % ID/g | Biodistribution Liver (2 h p.i., Avg): 0.05 % ID/g | Biodistribution Lung (2 h p.i., Avg): 0.09 % ID/g | Biodistribution Muscle (2 h p.i., Avg): 0.35 % ID/g | Biodistribution Pancreas (2 h p.i., Avg): 1.50 % ID/g | Biodistribution Seminal (2 h p.i., Avg): 6.41 % ID/g | Biodistribution Spleen (2 h p.i., Avg): 0.17 % ID/g | Biodistribution Stomach (2 h p.i., Avg): 1.30 % ID/g | Biodistribution Tail (2 h p.i., Avg): 0.56 % ID/g | Biodistribution Testes (2 h p.i., Avg): 0.28 % ID/g | Biodistribution Tumour (2 h p.i., Avg): 6.84 % ID/g | Biodistribution Brain (2 h p.i., single mice): 0.02 % ID/g and 0.03 % ID/g | Biodistribution Heart (2 h p.i., single mice): 0.32 % ID/g and 0.58 % ID/g and 0.55 % ID/g and 0.44 % ID/g and 0.46 % ID/g | Biodistribution Intestine (2 h p.i., single mice): 0.21 % ID/g and 0.23 % ID/g and 0.26 % ID/g and 0.24 % ID/g and 0.32 % ID/g | Biodistribution Liver (2 h p.i., single mice): 0.04 % ID/g and 0.06 % ID/g and 0.05 % ID/g and 0.07 % ID/g | Biodistribution Muscle (2 h p.i., single mice): 0.31 % ID/g and 0.39 % ID/g and 0.27 % ID/g and 0.33 % ID/g and 0.44 % ID/g | Biodistribution Pancreas (2 h p.i., single mice): 1.30 % ID/g and 1.76 % ID/g and 1.41 % ID/g and 1.23 % ID/g and 1.80 % ID/g | Biodistribution Testes (2 h p.i., single mice): 0.23 % ID/g and 0.34 % ID/g and 0.26 % ID/g and 0.19 % ID/g and 0.36 % ID/g | Biodistribution Tumour (2 h p.i., single mice): 6.12 % ID/g and 6.47 % ID/g and 7.93 % ID/g
